# How the values were obtained:
# [1] = system: MDA; test: Toxicity test on cells, MDA; format: cell-based; settings: 48 hours of treatment, Hoechst nuclei staining
# Procedure: [The procedure below names another cell line; the source lists this cell line under the same test.] (§1) The compounds according to the invention were also tested on the cell lines HuH7, CaCo-2, HCT116, PC3, NCl, HacaT and Fibroblasts.
# (§2) Operating Procedure: The cells were cultivated according to the ECACC recommendations. The toxicity test of the compounds on these cells was conducted as follows: 4×10^3 cells/well were sown in 96 wells. 24 hours after sowing the cells, the cells were exposed to increased concentrations of the compounds (0.1 μM-0.3 μM-0.9 μM-2.7 μM-8.3 μM-25 μM). After 48 hours of treatment, the cells were washed in PBS and bound in a cold ethanol/acetic acid (90/5) mixture for 20 minutes. Next, the nuclei were coloured with […] (Sigma). The acquisition of images and the analysis was carried out by means of a reader Cellomics ArrayScan VTI/HCS (Thermo Scientific).
# [2] = system: HUH7; test: Toxicity test on cells, HUH7; format: cell-based; settings: Homo sapiens, Huh-7; 48 hours of treatment, Hoechst nuclei staining
# Procedure: as §1, §2
# [3] = molecular target: mTOR (Homo sapiens, UniProt P42345); test: mTOR kinase activity, LANCE Ultra TR-FRET; format: biochemical; settings: truncated mTOR protein, triplicate; read-out: Kinases IC50 mTOR
# Procedure: The activity of the mTOR kinase was evaluated by using a purified truncated protein of the amino acids 1-1359 (reference: PV4753 from Invitrogen). The assay of the activity of the enzyme was carried out with the kit LANCE® Ultra which is an enzymatic test based on the detection of a phosphorylated peptide produced during the reaction, by using the fluorescence technique TR-FRET. It took place in a 384-well plate and was able to be divided into two phases: an enzymatic reaction phase and a phase for detecting the phosphorylated peptide.
# During the enzymatic reaction phase, the following components were mixed in 10 μL of a same well: 5 μL of each dilution in series of inhibitors taken up in DMSO and then diluted to 1/25 in the reaction buffer (50 mM HEPES pH 7.5, 0.1% Tween-20, 1 mM EGTA, 10 mM MnCl2, 3 mM MgCl2 and 2 mM of DTT), 2.5 μL of a solution containing mTOR at the optimum concentration (concentration defined according to the optimization step described in the operating procedure of the kit) diluted in the same reaction buffer, and finally 2.5 μL of a solution containing 40 μM of ATP and 200 μM non-phosphorylated peptide diluted in the reaction buffer. For each inhibitor concentration, the reaction was conducted in three copies (triplicate). The reaction was then incubated for 120 min at room temperature without any stirring in darkness.
# During the phase for detecting the phosphorylated peptide, 5 μL of an EDTA solution (32 mM) diluted in the dilution buffer (ref.: CR97-100 from Perkin Elmer) were injected into each well. After 5 min of incubation with stirring, 5 μL of a phosphorylated anti-peptide antibody solution labeled with europium (8 nM) and diluted in the same dilution buffer was added into each well. After 60 min of incubation at room temperature with stirring (40 rpm) in darkness, the 384-well plates were read in a plate reader Victor V configured for HTRF (Perkin Elmer). […] The inhibition curve was then plotted according to the fluorescence intensity value at 665 nm versus the inhibitor concentration.
# The amount of inhibitor required for causing a 50% variation in the intensity of the signal corresponds to the IC50 value of the inhibitor.
# [4] = molecular target: PI3Kα (Homo sapiens, UniProt P42336); test: PI3Kα kinase activity, Adapta TR-FRET ADP detection; format: biochemical; settings: purified p110α/p85α heterodimer, triplicate; read-out: Kinases IC50 PI3Kα
# Procedure: (§3) The activity of the PI3Kα kinase was evaluated by using a purified heterodimer (reference: PV4788 from Invitrogen) consisting of the α catalytic p110 subunit (PIK3CA) and the α regulation p85 subunit (PIK3R1). The assay of the kinase with the kit Adapta™ (reference: PV5099 from Invitrogen) is an enzymatic test based on the detection of ADP, produced during the reaction, by the fluorescence technique TR-FRET. It took place in a 384-well plate and was able to be divided into two phases: an enzymatic reaction phase, and a phase for detecting the ADP level.
# (§4) During the enzymatic reaction phase, the following components were mixed in 10 μL of a same well: 2.5 μL of each dilution in series of inhibitors taken up in DMSO and then diluted to 1/25 in the reaction buffer (250 mM HEPES pH 7.5, 500 mM NaCl, 0.15 CHAPS, 5 mM EGTA, 15 mM MgCl2 and 1 mM DTT, ref.: PV5101 from Invitrogen), 2.5 μL of a solution containing PI3K at the optimum concentration (concentration defined according to the optimization step described in the operating procedure of the kit) diluted in the same reaction buffer, and finally, 5 μL of a solution containing 20 μM ATP and 100 μM PIP2 diluted in the reaction buffer. For each inhibitor concentration, the reaction was conducted in three copies (triplicate). The reaction was then incubated for 60 min at room temperature without any stirring in darkness.
# (§5) During the phase for detecting ADP, 5 μL of a detection solution containing an anti-ADP antibody labeled with europium (6 nM), a tracer of the Alexa Fluor® 647 type coupled with ADP (30 nM), and EDTA (30 mM, for stopping the kinase reaction) were diluted in the dilution buffer (reference: PV3574 from Invitrogen). After 30 min of incubation at room temperature with stirring (40 rpm) in darkness, the 384-well plates were read in a plate reader Victor V configured for HTRF (Perkin Elmer). The excitation was produced at 340 nm and emission was measured at 665 nm and 615 nm. The inhibition curve was then plotted according to the emission ratio at 665 nm/615 nm versus the inhibitor concentration.
# (§6) In order to obtain a linear response of the signal, a titration curve ATP-ADP, corresponding to the conversion % of ATP into ADP, was achieved by varying both of these species while keeping [ADP]+[ATP]=10 μM. The emission ratio at 665 nm/615 nm resulting from this (Y) was plotted versus the conversion % of ATP into ADP (X). The data of this curve were formatted according to a model with three hyperbolic parameters from the following equation: Y=C+A*(1−(X/(B+X))).
# (§7) The software package GraphPad™ Prism® thus allows calculation of the parameters A, B and C. A conversion % corresponds to an emission ratio 665 nm/615 nm, this percentage is calculated by using the following equation: Conversion %=B*(C+A−Ratio)/(Ratio−C)
# (§8) The three parameters A, B and C having been defined by the preceding equation, the conversion % was therefore able to be plotted versus the inhibitor concentration. The amount of inhibitor required for causing a 50% variation in the % conversion of ATP into ADP corresponds to the IC50 value of the inhibitor.
# [5] = molecular target: PI3Kγ (Homo sapiens, UniProt P48736); test: PI3Kγ kinase activity, Adapta TR-FRET ADP detection; format: biochemical; settings: p110γ catalytic subunit; read-out: Kinases IC50 PI3Kγ
# Procedure: as §3, §4, §5, §6, §7, §8
# (§9) The activity of the kinase PI3Kγγ (PV4786 from Invitrogen) was evaluated on the p110γγ catalytic subunit (PI3KCG) and that of the kinase PI3Kδδ on the purified heterodimer (PV5273) respectively consisting of the δδ catalytic p110 subunit (PIK3CD) and the α regulation p85 subunit (PIK3R1) by following the same procedure.
# [6] = system: NCl; test: Toxicity test on cells, NCl; format: cell-based; settings: 48 hours of treatment, Hoechst nuclei staining
# Procedure: as §1, §2
# [7] = system: HCT116; test: Toxicity test on cells, HCT116; format: cell-based; settings: Homo sapiens, HCT-116; 48 hours of treatment, Hoechst nuclei staining
# Procedure: as §1, §2
# [8] = system: Fibroblasts; test: Toxicity test on cells, Fibroblasts; format: cell-based; settings: Fibroblast; 48 hours of treatment, Hoechst nuclei staining
# Procedure: as §1, §2
# [9] = system: CaCo2; test: Toxicity test on cells, CaCo2; format: cell-based; settings: Homo sapiens, Caco-2; 48 hours of treatment, Hoechst nuclei staining
# Procedure: as §1, §2
# [10] = molecular target: PI3Kδ (Homo sapiens, UniProt O00329); test: PI3Kδ kinase activity, Adapta TR-FRET ADP detection; format: biochemical; settings: purified p110δ/p85α heterodimer; read-out: Kinases IC50 PI3Kδ
# Procedure: as §3, §4, §5, §6, §7, §8, §9
# [11] = system: PC3; test: Toxicity test on cells, PC3; format: cell-based; settings: Homo sapiens, PC-3; 48 hours of treatment, Hoechst nuclei staining
# Procedure: as §1, §2
# [12] = system: HacaT; test: Toxicity test on cells, HacaT; format: cell-based; settings: Homo sapiens, 48 hours of treatment, Hoechst nuclei staining
# Procedure: as §1, §2
# Chain of PI3Kγ (P48736 whole entry): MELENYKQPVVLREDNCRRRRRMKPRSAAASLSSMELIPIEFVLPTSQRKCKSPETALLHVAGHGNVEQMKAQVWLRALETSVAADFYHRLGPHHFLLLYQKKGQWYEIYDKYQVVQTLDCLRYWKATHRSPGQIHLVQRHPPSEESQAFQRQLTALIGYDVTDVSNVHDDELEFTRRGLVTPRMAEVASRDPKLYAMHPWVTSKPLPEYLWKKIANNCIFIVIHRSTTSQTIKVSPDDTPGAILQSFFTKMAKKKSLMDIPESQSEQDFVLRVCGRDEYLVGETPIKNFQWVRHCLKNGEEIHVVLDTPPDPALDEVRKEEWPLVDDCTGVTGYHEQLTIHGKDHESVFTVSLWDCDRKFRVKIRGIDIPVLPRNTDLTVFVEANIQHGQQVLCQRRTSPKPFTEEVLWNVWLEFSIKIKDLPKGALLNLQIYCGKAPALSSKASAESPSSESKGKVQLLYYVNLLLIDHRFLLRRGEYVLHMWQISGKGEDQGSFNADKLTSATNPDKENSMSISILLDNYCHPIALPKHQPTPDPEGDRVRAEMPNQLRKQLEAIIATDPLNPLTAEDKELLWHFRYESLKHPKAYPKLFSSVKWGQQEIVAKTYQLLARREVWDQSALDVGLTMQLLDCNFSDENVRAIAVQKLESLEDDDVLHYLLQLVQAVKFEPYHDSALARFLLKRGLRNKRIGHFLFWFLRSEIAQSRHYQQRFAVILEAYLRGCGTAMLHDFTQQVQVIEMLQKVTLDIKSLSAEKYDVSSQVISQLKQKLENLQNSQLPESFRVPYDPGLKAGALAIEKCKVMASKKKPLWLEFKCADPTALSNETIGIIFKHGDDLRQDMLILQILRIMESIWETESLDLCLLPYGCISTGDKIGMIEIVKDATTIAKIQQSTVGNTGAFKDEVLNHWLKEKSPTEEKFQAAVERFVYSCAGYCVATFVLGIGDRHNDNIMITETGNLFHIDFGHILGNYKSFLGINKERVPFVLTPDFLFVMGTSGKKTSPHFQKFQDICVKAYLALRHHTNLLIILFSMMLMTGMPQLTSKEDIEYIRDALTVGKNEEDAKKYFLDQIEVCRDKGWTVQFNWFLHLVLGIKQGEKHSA
# Chain of mTOR (P42345 1360-2549): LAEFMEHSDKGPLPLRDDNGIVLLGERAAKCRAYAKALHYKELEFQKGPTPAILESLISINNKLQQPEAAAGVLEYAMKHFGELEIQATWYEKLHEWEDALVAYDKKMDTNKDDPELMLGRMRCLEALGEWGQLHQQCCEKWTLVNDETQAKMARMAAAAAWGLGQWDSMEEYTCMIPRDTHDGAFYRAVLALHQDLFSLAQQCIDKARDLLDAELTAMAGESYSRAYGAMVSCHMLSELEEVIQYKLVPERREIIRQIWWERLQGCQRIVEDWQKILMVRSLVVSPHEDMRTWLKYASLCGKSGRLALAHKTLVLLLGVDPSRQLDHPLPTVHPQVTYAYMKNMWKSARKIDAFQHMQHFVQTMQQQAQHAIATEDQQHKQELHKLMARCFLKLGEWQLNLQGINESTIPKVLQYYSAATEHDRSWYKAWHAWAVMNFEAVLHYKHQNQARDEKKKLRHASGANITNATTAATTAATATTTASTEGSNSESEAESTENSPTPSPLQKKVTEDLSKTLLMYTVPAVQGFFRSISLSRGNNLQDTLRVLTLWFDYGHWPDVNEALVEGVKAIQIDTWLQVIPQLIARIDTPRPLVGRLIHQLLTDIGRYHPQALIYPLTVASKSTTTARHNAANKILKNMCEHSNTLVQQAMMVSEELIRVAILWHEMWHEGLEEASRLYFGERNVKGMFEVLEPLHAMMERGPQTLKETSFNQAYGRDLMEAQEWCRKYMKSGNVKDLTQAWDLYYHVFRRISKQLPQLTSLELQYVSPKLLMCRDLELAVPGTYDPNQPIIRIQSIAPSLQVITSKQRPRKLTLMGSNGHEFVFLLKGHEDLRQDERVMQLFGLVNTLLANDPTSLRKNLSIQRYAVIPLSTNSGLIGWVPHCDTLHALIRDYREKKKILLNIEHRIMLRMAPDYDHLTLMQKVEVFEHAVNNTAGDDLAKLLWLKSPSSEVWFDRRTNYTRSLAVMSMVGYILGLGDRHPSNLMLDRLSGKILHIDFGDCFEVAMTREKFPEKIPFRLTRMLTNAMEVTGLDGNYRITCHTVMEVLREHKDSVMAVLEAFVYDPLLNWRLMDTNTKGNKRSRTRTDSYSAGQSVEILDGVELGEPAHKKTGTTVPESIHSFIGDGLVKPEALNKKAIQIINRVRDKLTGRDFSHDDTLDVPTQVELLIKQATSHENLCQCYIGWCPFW
# Chain of PI3Kα (P42336 whole entry): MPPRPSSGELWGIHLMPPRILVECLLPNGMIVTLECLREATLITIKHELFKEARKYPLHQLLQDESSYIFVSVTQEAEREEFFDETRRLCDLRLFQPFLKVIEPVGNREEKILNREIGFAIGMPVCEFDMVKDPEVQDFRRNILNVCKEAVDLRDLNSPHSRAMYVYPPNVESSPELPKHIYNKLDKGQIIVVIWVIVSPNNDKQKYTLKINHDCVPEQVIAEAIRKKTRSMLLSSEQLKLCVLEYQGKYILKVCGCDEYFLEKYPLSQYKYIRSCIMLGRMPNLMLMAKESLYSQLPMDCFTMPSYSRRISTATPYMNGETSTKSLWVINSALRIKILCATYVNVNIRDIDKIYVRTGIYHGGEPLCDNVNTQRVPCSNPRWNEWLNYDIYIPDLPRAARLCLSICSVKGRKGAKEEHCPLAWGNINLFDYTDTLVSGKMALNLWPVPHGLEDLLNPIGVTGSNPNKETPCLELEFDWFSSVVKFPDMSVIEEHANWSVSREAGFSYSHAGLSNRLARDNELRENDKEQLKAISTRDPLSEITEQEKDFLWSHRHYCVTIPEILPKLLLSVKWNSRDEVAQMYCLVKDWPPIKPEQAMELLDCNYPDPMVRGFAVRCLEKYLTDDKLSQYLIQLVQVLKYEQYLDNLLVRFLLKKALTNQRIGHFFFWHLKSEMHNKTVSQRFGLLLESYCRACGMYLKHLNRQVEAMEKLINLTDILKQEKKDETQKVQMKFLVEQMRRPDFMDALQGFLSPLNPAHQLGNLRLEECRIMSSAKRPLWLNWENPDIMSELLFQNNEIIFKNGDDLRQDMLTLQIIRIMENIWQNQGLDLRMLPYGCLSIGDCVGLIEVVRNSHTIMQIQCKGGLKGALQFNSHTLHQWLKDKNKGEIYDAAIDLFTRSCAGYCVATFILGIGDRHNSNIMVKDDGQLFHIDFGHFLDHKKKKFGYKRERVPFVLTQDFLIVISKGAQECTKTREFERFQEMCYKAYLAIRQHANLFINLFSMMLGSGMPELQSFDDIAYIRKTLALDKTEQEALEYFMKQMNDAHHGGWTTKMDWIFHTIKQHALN
# Chain of PI3Kα (P27986 whole entry partner): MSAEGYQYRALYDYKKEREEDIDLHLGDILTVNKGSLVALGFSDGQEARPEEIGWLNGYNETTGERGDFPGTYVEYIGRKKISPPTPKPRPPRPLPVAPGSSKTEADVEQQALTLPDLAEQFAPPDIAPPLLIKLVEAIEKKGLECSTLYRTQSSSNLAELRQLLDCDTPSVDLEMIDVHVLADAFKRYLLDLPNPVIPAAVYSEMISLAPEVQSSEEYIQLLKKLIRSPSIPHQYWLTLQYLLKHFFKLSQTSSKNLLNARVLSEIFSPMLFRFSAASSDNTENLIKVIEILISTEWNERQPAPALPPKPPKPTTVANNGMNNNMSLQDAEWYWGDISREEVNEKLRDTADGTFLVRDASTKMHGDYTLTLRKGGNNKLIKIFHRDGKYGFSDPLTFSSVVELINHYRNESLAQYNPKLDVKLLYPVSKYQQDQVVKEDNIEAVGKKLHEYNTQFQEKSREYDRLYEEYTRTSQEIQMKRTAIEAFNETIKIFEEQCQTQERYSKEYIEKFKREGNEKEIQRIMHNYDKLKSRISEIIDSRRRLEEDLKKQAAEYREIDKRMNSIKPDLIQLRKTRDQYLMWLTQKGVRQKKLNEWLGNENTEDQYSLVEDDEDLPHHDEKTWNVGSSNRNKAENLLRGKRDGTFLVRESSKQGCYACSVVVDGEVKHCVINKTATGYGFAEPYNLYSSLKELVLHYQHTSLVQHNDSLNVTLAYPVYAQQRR
IC50 [3],IC50 [4],IC50 [5],IC50 [10],Structure (SMILES),IC50 [1],IC50 [2],IC50 [6],IC50 [7],IC50 [8],IC50 [9],IC50 [11],IC50 [12]
0.135 µM,0.01 µM,0.399 µM,0.063 µM,"O=C(O)c1cnc2c(N3CCOCC3)nc(-c3cccc(O)c3)nc2c1 [Compound 42, 2-(3-hydroxyphenyl)-4-morpholinopyrido[3,2-d]pyrimidine-7-carboxylic acid]",–,–,–,–,–,–,–,–
1.9 µM,0.057 µM,0.563 µM,0.081 µM,O=CCCc1cnc2c(N3CCOCC3)nc(-c3cccc(O)c3)nc2c1 [Compound 46],–,–,–,–,–,–,–,–
–,0.056 µM,–,–,"CS(=O)(=O)N1CCN(Cc2cnc3c(N4CCOCC4)nc(-c4cccc(O)c4)nc3c2)CC1 [Compound 55, 3-{7-[(4-methanesulfonylpiperazin-1-yl)methyl]-4-(morpholin-4-yl)pyrido[3,2-d]pyrimidin-2-yl}phenol]",–,–,–,–,–,–,–,–
–,0.038 µM,–,–,"CN(C)Cc1cn(Cc2cnc3c(N4CCOCC4)nc(-c4cccc(O)c4)nc3c2)nn1 [Compound 58, 3-[7-({4-[(dimethylamino)methyl]-1H-1,2,3-triazol-1-yl}methyl)-4-(morpholin-4-yl)pyrido[3,2-d]pyrimidin-2-yl]phenol]",–,–,–,–,–,–,–,–
–,0.116 µM,–,–,"COCOCc1cn(Cc2cnc3c(N4CCOCC4)nc(-c4cccc(O)c4)nc3c2)nn1 [Compound 59, 3-[7-({4-[(methoxymethoxy)methyl]-1H-1,2,3-triazol-1-yl}methyl)-4-(morpholin-4-yl)pyrido[3,2-d]pyrimidin-2-yl]phenol]",–,–,–,–,–,–,–,–
–,0.391 µM,–,–,"Oc1cccc(-c2nc(N3CCOCC3)c3ncc(Cn4cc(CF)nn4)cc3n2)c1 [Compound 61, 3-(7-{[4-(fluoromethyl)-1H-1,2,3-triazol-1-yl]methyl}-4-(morpholin-4-yl)pyrido[3,2-d]pyrimidin-2-yl)phenol]",–,–,–,–,–,–,–,–
–,0.018 µM,–,–,"COCc1cn(Cc2cnc3c(N4CCOCC4)nc(-c4ccc(NC(=O)NCC(F)(F)F)cc4)nc3c2)nn1 [Compound 82, 1-[4-(7-{[4-(methoxymethyl)-1H-1,2,3-triazol-1-yl]methyl}-4-(morpholin-4-yl)pyrido[3,2-d]pyrimidin-2-yl)phenyl]-3-(2,2,2-trifluoroethyl)urea]",–,–,–,–,–,–,–,–

# The next lines start with the compound.
Structure (SMILES),IC50 [3],IC50 [4],IC50 [5],IC50 [10],IC50 [1],IC50 [2],IC50 [6],IC50 [7],IC50 [8],IC50 [9],IC50 [11],IC50 [12]
"C=Cc1cnc2c(N3CCOCC3)nc(-c3cccc(O)c3)nc2c1 [Compound 14, 3-(4-morpholino-7-vinylpyrido[3,2-d]pyrimidin-2-yl)phenol]",0.109 µM,0.098 µM,0.196 µM,0.011 µM,20 µM,20 µM,20 µM,5 µM,> 25 µM,1.5 µM,20 µM,–
"C=Cc1cnc2c(N3CCOCC3)nc(-c3cccc(CO)c3)nc2c1 [Compound 17, (3-(4-Morpholino-7-vinylpyrido[3,2-d]pyrimidin-2-yl)phenyl)methanol]",–,–,–,–,> 25 µM,15 µM,> 25 µM,6 µM,> 25 µM,5 µM,25 µM,4 µM
"O=Cc1cnc2c(N3CCOCC3)nc(-c3cccc(O)c3)nc2c1 [Compound 20, 2-(3-hydroxyphenyl)-4-morpholinopyrido[3,2-d]pyrimidine-7-carbaldehyde]",0.071 µM,0.047 µM,> 50 µM,0.01 µM,20 µM,20 µM,> 25 µM,6 µM,> 25 µM,4 µM,25 µM,–
"OCC(O)c1cnc2c(N3CCOCC3)nc(-c3cccc(O)c3)nc2c1 (stereo not drawn) [Compound 22, 1-(2-(3-hydroxyphenyl)-4-morpholinopyrido[3,2-d]pyrimidin-7-yl)ethane-1,2-diol]",0.46 µM,0.082 µM,0.344 µM,0.041 µM,10 µM,> 25 µM,> 25 µM,5 µM,> 25 µM,4 µM,4 µM,–
"OCc1cnc2c(N3CCOCC3)nc(-c3cccc(O)c3)nc2c1 [Compound 34, 3-(7-(hydroxymethyl)-4-morpholinopyrido[3,2-d]pyrimidin-2-yl)phenol]",0.35 µM,0.366 µM,0.022 µM,0.126 µM,25 µM,1 µM,> 25 µM,3 µM,25 µM,1.5 µM,5 µM,–
"N#CCc1cnc2c(N3CCOCC3)nc(-c3cccc(O)c3)nc2c1 [Compound 41, 2-(2-(3-hydroxyphenyl)-4-morpholinopyrido[3,2-d]pyrimidin-7-yl)acetonitrile]",0.82 µM,0.051 µM,0.127 µM,0.34 µM,–,–,–,–,–,–,–,–

# — patent US10202372B2, “Trisubstituted pyrido[2,3-D]pyrimidines, methods for preparing same and therapeutic uses thereof” (CENTRE NATIONAL DE LA RECHERCHE SCIENTIFIQUE (C.N.R.S), priority 2012, dated 2019)
